# Results: US11617796B2, “Conjugate of minoxidil and peptide” (CAREGEN CO., LTD., priority 2016, dated 2023)
# Where no end group is shown, it is not given here.
# How the values were obtained:
# VEGF = VEGF mRNA amount by RT-PCR in HUVECs; format: cell-based, human; settings: 5 and 50 uM, 24 hours, compared with Minoxidil, FIGS. 4 to 6
# Procedure: (§1) VEGF was expressed by HUVECs and TGFβ1 was expressed by hair follicle dermal papilla cells. Two cells were placed in each 6-well plate at a rate of 1×10^3 cells/well. After 24 hours of incubation in a CO2 incubator, the medium was replaced with serum-free DMEM medium. Three compounds of the present invention and Minoxidil were added to the cells at 5 uM and 50 uM concentration, respectively, and incubated for 24 hours. After incubated cells were harvested, RNA was extracted using an RNA extraction kit and RT-PCR was performed to confirm the degree of expression of VEGF and TGFβ1.
# TGFβ1 = TGFβ1 mRNA amount by RT-PCR in hair follicle dermal papilla cells; format: cell-based, human; settings: 5 and 50 uM, 24 hours, compared with Minoxidil, FIGS. 4 to 6
# Procedure: as §1
# phospho-Smad1/5/8 = experiment: Translocation of phospho-Smad1/5/8 to nucleus in the presence of BMP2 (Western blotting); format: cell-based; settings: in the presence of BMP2, 5 and 50 uM, compared with Minoxidil; FIGS. 12 and 13
# Procedure: (§2) Hair follicle dermal papilla cells were placed in each well of a 6-well plate at 1×10^3 cells/well. Incubation was performed in a CO2 incubator for 24 hours. After replacing the medium with serum-free DMEM medium, the Minoxidil, the Minoxidil-WINT, and the WINT were added respectively to the cells at a concentration of 5 uM and 50 uM, and then incubated for 24 hours. Protein was extracted using a protein extraction kit (extraction of each of the nuclear/cytoplasmic protein). Western blotting was carried out in the same manner as in Example 3-2 except that an anti-beta-catenin antibody, an anti-HDAC antibody, an anti-alpha tubulin antibody as primary antibodies were used.
# The experiment was carried out in the same manner as in Example 5, except that in the presence of BMP2, the Minoxidil-Nokkin is used instead of the Minoxidil-WINT, and an anti-P-Smad1/5/8 antibody and an anti-HDAC1 antibody were used as primary antibodies.
# β-catenin = experiment: Translocation of β-catenin to nucleus in hair follicle dermal papilla cells (Western blotting); format: cell-based; settings: 5 and 50 uM, 24 hours, same concentration; FIG. 10
# Procedure: as §2, with “After replacing the medium with serum-free DMEM medium, the Minoxidil, the Minoxidil-WINT, and the WINT were added respectively to the cells at a concentration of 5 uM and 50 uM, and then incubated for 24 hours.” left out
Compound,expression of VEGF (mRNA) (VEGF),expression of TGFβ1 (mRNA) (TGFβ1),delivery of P-Smad1/5/8 into the nucleus (phospho-Smad1/5/8),degree of translocation of β-catenin to the nucleus (β-catenin)
"Minoxidil-Nokkin: Minoxidil chemically conjugated to Nokkin peptide of SEQ ID NO: 1 (ELIEHGGGRPAD) (also: minoxidil conjugate, attachment site not given here)",significantly higher than that of Minoxidil,significantly lower than that of the Minoxidil,reduced as compared to the treatment with the Minoxidil,–
Nc1cc(N2CCCCC2)nc(N)[n+]1[O-] [Minoxidil],–,–,–,significantly lower degree of translocation of β-catenin to the nucleus
